# Results as given in PubChem BioAssay (NCI).
#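 The concentration for 50% growth inhibition is given as GI50. Definition used: TGI = concentration required for complete inhibition of growth.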
# Assays:
# Test in all cases: NCI anticancer screen, dose series, 384-well format
# [1] = system: MCF7 breast
# [2] = system: BT-549 breast
# [3] = system: OVCAR-5 ovarian
# [4] = system: COLO 205 colon
# [5] = system: UACC-62 melanoma
# [6] = system: M14 melanoma
# [7] = system: OVCAR-4 ovarian
# [8] = system: NCI-H522 lung
# [9] = system: UO-31 renal
# [10] = system: RPMI-8226 leukemia
# [11] = system: A498 renal
# [12] = system: IGROV1 ovarian
# [13] = system: MDA-MB-435 melanoma
smiles,measurement,setting,value
C=CC(=O)Nc1cc(C)ccc1Nc1nc(Nc2cc(OC)ncc2C)ncc1C(F)(F)F,GI50,[1],690 nM
same,TGI,[1],4130 nM
same,GI50,[2],300 nM
same,TGI,[2],1020 nM
same,GI50,[3],279 nM
same,TGI,[3],1500 nM
same,GI50,[4],75.3 nM
same,TGI,[4],1120 nM
same,GI50,[5],59.9 nM
same,TGI,[5],381 nM
same,GI50,[6],35.5 nM
same,TGI,[6],194 nM
same,GI50,[7],394 nM
same,TGI,[7],7500 nM
same,GI50,[8],310 nM
same,TGI,[8],1480 nM
same,GI50,[9],394 nM
same,TGI,[9],2880 nM
same,GI50,[10],232 nM
same,TGI,[10],1170 nM
same,GI50,[11],479 nM
same,TGI,[11],1900 nM
same,GI50,[12],233 nM
same,TGI,[12],906 nM
same,GI50,[13],253 nM
same,TGI,[13],1510 nM
